These results are taken from PubChem BioAssay AID1053137 (Broad Institute, 2014).

Experiment [1] is described as follows: PCSK9 mRNA reduction in HepG2 cells, late-stage follow-up, mechanism study for TRIB1 upregulator project, cell-based, RT-qPCR, cherry-pick (AID 1053137). The conditions noted are these: HepG2 PCSK9 mRNA, qRT-PCR, overnight; measured here: maximal PCSK9 expression inhibition; stronger effect = higher value. (In qPCR the cycle at which signal appears reflects the starting amount.)

The subject of experiment [2] is HepG2 PCSK9 mRNA, qRT-PCR, overnight. Described as above.

For orientation: inhibition means the change of the read-out against control, counted positive when it falls. By AC50 is commonly meant the concentration at which the activity in the assay is half-maximal.

In turn, `CN1C(=O)c2cc(NC(=O)c3ccc(C(F)(F)F)cc3)ccc2OC[C@@H]2O[C@@H](CC(=O)NC3Cc4ccccc4C3)CC[C@@H]21` returned an inhibition in experiment [1] of 87%. In experiment [2], the AC50 is 870 nM.

In turn, `CN1C(=O)c2cc(NC(=O)c3ccc(C(F)(F)F)cc3)ccc2OC[C@@H]2O[C@H](CC(=O)NC3Cc4ccccc4C3)CC[C@@H]21` returned an inhibition in experiment [1] of 85%. The AC50 in experiment [2] was 110 nM.
